Reference: US4880817A, “O-functionalized derivatives of substituted isoquinolin-3-ols having cardiotonic and/or phosphodiesterase fraction III inhibiting properties and/or renal vasodilating properties” (Ortho Pharmaceutical Corporation, priority 1987, dated 1989)
Where two headings read alike, the source gives them in different places.

System: adult mongrel dogs
Test: Renal vasodilating activity in anesthetized dogs
Type: in vivo, mongrel dog
Settings: for change in vivo at 1.2 mg/kg / change in vivo at 6.2 mg/kg / change in vivo at 1.34 mg/kg: Canis lupus familiaris; for MABP: percent change in mean arterial blood pressure / RBF: percent change in renal blood flow / RVR: percent change in renal vascular resistance: 1.2 mg/kg; for change in vivo at 1.34 mg/kg: dose 1.34 mpk
Description: Goldberg et al., J. Pharmacol. Exp. Ther., 163, 188 (1968), performed an investigation of the structural requirements for dopamine-like renal vasodilation of phenethylamines and apomorphine. The following procedure is a variation of the assay described in that report.
Adult mongrel dogs were anesthetized and surgically prepared for electromagnetic measurement of renal artery blood flow. A carotid artery was cannulated for measuring arterial blood pressure and drugs were administered intravenously or intraarterially (via the renal artery). Heart rate was monitored with a cardiotachometer. Renal vascular resistance was calculated as the ratio of mean arterial blood pressure to renal artery blood flow. Dopamine was infused intravenously at 3 μg/kg/min for ten minutes (at an infusion rate of about 1 ml/min) to determine responsiveness of each dog to renal dopamine receptor stimulation. Cumulative dose-response data were obtained by infusing a compound of this invention at progressively increasing (usually three-fold) infusion rates, each dose being infused for five minutes. The maximum percent change from pre-drug control in renal artery blood flow (or in renal vascular resistance) was determined for each infusion dose.
RBF, RVR, MABP, and HR values are percent changes in renal blood flow, renal vascular resistance, mean arterial blood pressure, and heart rate, respectively, relative to control values.

[1] = read-out: HR: percent change in heart rate, dose 1.2 mpk, relative to controls
[2] = read-out: MABP: percent change in mean arterial blood pressure, dose 1.2 mpk, relative to controls
[3] = read-out: RBF: percent change in renal blood flow, dose 1.2 mpk, relative to controls
[4] = read-out: RVR: percent change in renal vascular resistance, dose 1.2 mpk, relative to controls
[5] = dose 6.2 mpk, relative to controls, read-out: HR: percent change in heart rate
[6] = dose 6.2 mpk, relative to controls, read-out: MABP: percent change in mean arterial blood pressure
[7] = dose 6.2 mpk, relative to controls, read-out: RBF: percent change in renal blood flow
[8] = dose 6.2 mpk, relative to controls, read-out: RVR: percent change in renal vascular resistance
[9] = dose 1.2 mpk, relative to controls
[10] = dose 1.2 mpk, relative to controls, read-out: HR: percent change in heart rate
[11] = dose 1.2 mpk, relative to controls, read-out: MABP: percent change in mean arterial blood pressure
[12] = dose 1.2 mpk, relative to controls, read-out: RBF: percent change in renal blood flow
[13] = dose 1.2 mpk, relative to controls, read-out: RVR: percent change in renal vascular resistance

C=CCNC(=O)Nc1c(OC(=O)N(C(C)C)C(C)C)nc(C)c2cc(OC)c(OC)cc12 [Cmpd 62]
change in vivo at 1.2 mg/kg [1]: 0% | change in vivo at 1.2 mg/kg [2]: 11% | change in vivo at 1.2 mg/kg [3]: 17% | change in vivo at 1.2 mg/kg [4]: -5%

COc1cc2c(C)nc(OC(=O)c3ccc(Cl)cc3)c([N+](=O)[O-])c2cc1OC [Cmpd 15]
change in vivo at 6.2 mg/kg [5]: 3% | change in vivo at 6.2 mg/kg [6]: -1% | change in vivo at 6.2 mg/kg [7]: 15% | change in vivo at 6.2 mg/kg [8]: -14%

COc1cc2c(C)nc(OC(C)=O)c([N+](=O)[O-])c2cc1OC [Cmpd 2, 3-Acetoxy-6,7-dimethoxy-1-methyl-4-nitroisoquinoline]
change in vivo at 6.2 mg/kg [5]: -2% | change in vivo at 6.2 mg/kg [6]: -8% | change in vivo at 6.2 mg/kg [7]: 17% | change in vivo at 6.2 mg/kg [8]: -16%

CCOc1cc2c(C)nc(OS(C)(=O)=O)c([N+](=O)[O-])c2cc1OC [Cmpd 6]
change in vivo at 6.2 mg/kg [5]: -10% | change in vivo at 6.2 mg/kg [6]: -2% | change in vivo at 6.2 mg/kg [7]: 38% | change in vivo at 6.2 mg/kg [8]: -28%

CCCCNC(=O)Nc1c(OC(=O)N(CC)CC)nc(C)c2cc(OC)c(OC)cc12 [Cmpd 38, 4-[N'-(n-Butylureido)]-3-diethylcarbamyloxy-6,7-dimethoxy-1-methylisoquinoline]
change in vivo at 6.2 mg/kg (read-out: HR: percent change in heart rate, dose 6.2 mpk, relative to controls): -4% | change in vivo at 6.2 mg/kg (read-out: MABP: percent change in mean arterial blood pressure, dose 6.2 mpk, relative to controls): 5% | change in vivo at 6.2 mg/kg (read-out: RBF: percent change in renal blood flow, dose 6.2 mpk, relative to controls): 34% | change in vivo at 6.2 mg/kg (read-out: RVR: percent change in renal vascular resistance, dose 6.2 mpk, relative to controls): -21%

C=CCNC(=O)Nc1c(OC(=O)N(CC)CC)nc(C)c2cc(OC)c(OC)cc12 [Cmpd 50]
change in vivo at 1.2 mg/kg [1]: -2% | change in vivo at 1.2 mg/kg [2]: 0% | change in vivo at 1.2 mg/kg [3]: 20% | change in vivo at 1.2 mg/kg [4]: -16%

C=CCNC(=O)Nc1c(OC(=O)N2CCCC2)nc(C)c2cc(OC)c(OC)cc12 [Cmpd 59]
change in vivo at 1.2 mg/kg [1]: 2% | change in vivo at 1.2 mg/kg [2]: 1% | change in vivo at 1.2 mg/kg [3]: 23% | change in vivo at 1.2 mg/kg [4]: -16%

C=CCNC(=O)Nc1c(OC(=O)N(C)C)nc(C)c2cc(OC)c(OC)cc12 [Cmpd 40]
MABP: percent change in mean arterial blood pressure [9]: -1 percent change | RBF: percent change in renal blood flow [9]: +9 percent change | RVR: percent change in renal vascular resistance [9]: -9 percent change

C=CCNC(=O)Nc1c(OC(=O)N(C)C)nc(C)c2cc(OC)c(OC)cc12 [Cmpd 67]
change in vivo at 1.2 mg/kg [1]: 0% | MABP: percent change in mean arterial blood pressure [9]: +7 percent change | RBF: percent change in renal blood flow [9]: +50 percent change | RVR: percent change in renal vascular resistance [9]: -28 percent change

CCCCNC(=O)Nc1c(OS(=O)(=O)N(C)C)nc(C)c2cc(OC)c(OC)cc12 [Cmpd 64]
change in vivo at 1.2 mg/kg [10]: 0% | change in vivo at 1.2 mg/kg [11]: 4% | change in vivo at 1.2 mg/kg [12]: 15% | change in vivo at 1.2 mg/kg [13]: -9%

COc1cc2c(C)nc(OC(C)=O)c(Br)c2cc1OC [Cmpd 1]
change in vivo at 1.34 mg/kg (relative to controls, read-out: HR: percent change in heart rate): 37% | change in vivo at 1.34 mg/kg (relative to controls, read-out: MABP: percent change in mean arterial blood pressure): -21% | change in vivo at 1.34 mg/kg (relative to controls, read-out: RBF: percent change in renal blood flow): 22% | change in vivo at 1.34 mg/kg (relative to controls, read-out: RVR: percent change in renal vascular resistance): 35%

CCN(CC)C(=O)Oc1nc(C)c2cc(OC)c(OC)cc2c1NC(=O)Nc1ccc(OC)cc1 [Cmpd 51]
change in vivo at 1.2 mg/kg [10]: 25% | change in vivo at 1.2 mg/kg [11]: -6% | change in vivo at 1.2 mg/kg [12]: 17% | change in vivo at 1.2 mg/kg [13]: -20%

CCCCNC(=O)Nc1c(OC(=O)N2CCN(C(=O)OC(C)(C)C)CC2)nc(C)c2cc(OC)c(OC)cc12 [Cmpd 76]
change in vivo at 1.2 mg/kg [1]: -9% | change in vivo at 1.2 mg/kg [2]: -2% | change in vivo at 1.2 mg/kg [3]: 23% | change in vivo at 1.2 mg/kg [4]: -22%

C=CCNC(=O)N(C(=O)NCC=C)c1c(OC(=O)N(CC)CC)nc(C)c2cc(OC)c(OC)cc12 [Cmpd 49]
change in vivo at 1.2 mg/kg [10]: -6% | change in vivo at 1.2 mg/kg [11]: 2% | change in vivo at 1.2 mg/kg [12]: 14% | change in vivo at 1.2 mg/kg [13]: -8%

CCCCNC(=O)Nc1c(OC(=O)N(c2ccccc2)c2ccccc2)nc(C)c2cc(OC)c(OC)cc12 [Cmpd 57]
change in vivo at 1.2 mg/kg [1]: 7% | change in vivo at 1.2 mg/kg [2]: 4% | change in vivo at 1.2 mg/kg [3]: 28% | change in vivo at 1.2 mg/kg [4]: -18%
